Experimental data published in patent US6399631B1, “Carbazole neuropeptide Y5 antagonists” (Pfizer Inc., priority 1999, dated 2002).

Tests used:
[1] = molecular target: neuropeptide Y receptor; details: in vitro test for neuropeptide Y receptor antagonism; cited from earlier work
[2] = molecular target: T1, Y1 (Homo sapiens, UniProt P25929); test: endogenous NPY response in Bowes melanoma cell host; details: at 10 uM; human Bowes melanoma cell line (HMCB)
T1 sequence (P25929 1-384): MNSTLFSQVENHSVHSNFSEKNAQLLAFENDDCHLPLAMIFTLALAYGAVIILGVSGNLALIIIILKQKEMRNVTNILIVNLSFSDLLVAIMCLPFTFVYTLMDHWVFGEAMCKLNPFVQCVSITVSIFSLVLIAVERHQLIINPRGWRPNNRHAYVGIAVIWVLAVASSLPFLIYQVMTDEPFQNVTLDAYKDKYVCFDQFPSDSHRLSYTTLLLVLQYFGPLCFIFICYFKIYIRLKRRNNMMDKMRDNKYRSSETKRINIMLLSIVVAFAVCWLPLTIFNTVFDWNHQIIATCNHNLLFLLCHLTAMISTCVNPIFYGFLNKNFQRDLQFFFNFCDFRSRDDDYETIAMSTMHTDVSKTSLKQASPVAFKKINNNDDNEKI

SMILES | IC50 [1] | endogenous NPY response [2]
Cc1cc(N2CCCC2)cc(/C=C/c2cccc(C(F)(F)F)c2)n1 [(E)-2-methyl4-pyrrolidino-6-[2-(3-trifluoromethylphenyl)vinyl]pyridine] | 4.1 nM | –
NC(N)=NCCC[C@@H](NC(=O)C(c1ccccc1)c1ccccc1)C(=O)NCc1ccc(O)cc1 [BIBP3226] | – | completely blocked
